What was measured:
human DHODH = human DHODH (Homo sapiens (Human), UniProt Q02127); assay: DHODH Enzymatic Assay; type: biochemical; conditions: purified human DHODH, DCIP absorbance, end-point mode; read-out: hDHODH IC50
Outline: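 Purified human DHODH in […] HEPES pH 7.5, 150 mM NaCl, 0.5 mM EDTA, 0.1% Triton X-100; reaction started with substrate mix of 20 mM DHO, 5 mM CoQ6, 1 mM DCIP. End-point read as DCIP reduction (absorbance ~600 nm) after brequinar quench.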

[1] = test system: MOLM-13 cells (human acute myeloid leukemia cells); assay: MOLM-13 Cellular Assay; type: cell-based; conditions: 72 hours exposure, cell viability by CellTiter-Glo
Outline: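 MOLM-13 AML cells, seeded at 5,000/well in RPMI 1640 with 10% FBS, were treated with compounds right after seeding for 72 h at 37 °C, 5% CO2. Viability read by CellTiter-Glo luminescence.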

human DHODH, sequence (Q02127 whole entry): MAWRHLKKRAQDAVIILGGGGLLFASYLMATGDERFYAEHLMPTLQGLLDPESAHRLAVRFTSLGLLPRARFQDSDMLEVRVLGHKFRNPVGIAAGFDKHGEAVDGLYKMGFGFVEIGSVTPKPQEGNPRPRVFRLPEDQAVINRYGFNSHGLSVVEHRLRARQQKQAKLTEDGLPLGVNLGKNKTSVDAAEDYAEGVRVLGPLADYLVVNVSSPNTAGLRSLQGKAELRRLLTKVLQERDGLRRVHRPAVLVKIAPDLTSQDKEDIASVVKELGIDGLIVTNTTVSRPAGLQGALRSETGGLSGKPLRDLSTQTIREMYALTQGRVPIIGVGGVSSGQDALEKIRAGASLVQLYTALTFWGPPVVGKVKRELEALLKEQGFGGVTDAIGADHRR

| SMILES | IC50 (human DHODH) [nM] | IC50 ([1]; Homo sapiens, MOLM-13, 72 h) [nM] | IC50 [1] [nM] |
| --- | --- | --- | --- |
| CCn1c(CO)nn(-c2cc3c(C(C)C)cn(-c4cncnc4C)c(=O)c3cc2F)c1=O [Example 94, 6-(4-Ethyl-3-(hydroxymethyl)-5-oxo-4,5-dihydro-1H-1,2,4-triazol-1-yl)-7-fluoro-4-isopropyl-2-(4-methylpyrimidin-5-yl)isoquinolin-1(2H)-one] | 566 | > 100 |  |
| CCn1c(CO)nn(-c2cc3c(C(C)C)cn(-c4ccccc4OC)c(=O)c3cc2F)c1=O [Example 95, 6-(4-Ethyl-3-(hydroxymethyl)-5-oxo-4,5-dihydro-1H-1,2,4-triazol-1-yl)-7-fluoro-4-isopropyl-2-(2-methoxyphenyl)isoquinolin-1(2H)-one] | 0.772 | 1 |  |
| CCn1c(CO)nn(-c2cc3c(C(C)C)cn(-c4nc(OC)ccc4F)c(=O)c3cc2F)c1=O [Example 96, 6-(4-Ethyl-3-(hydroxymethyl)-5-oxo-4,5-dihydro-1H-1,2,4-triazol-1-yl)-7-fluoro-2-(3-fluoro-6-methoxypyridin-2-yl)-4-isopropylisoquinolin-1(2H)-one] | 6.14 | 9 |  |
| CCn1c(CO)nn(-c2cc3c(C(C)C)cn(-c4nccnc4C)c(=O)c3cc2F)c1=O [Example 97, 6-(4-Ethyl-3-(hydroxymethyl)-5-oxo-4,5-dihydro-1H-1,2,4-triazol-1-yl)-7-fluoro-4-isopropyl-2-(3-methylpyrazin-2-yl)isoquinolin-1(2H)-one] | > 10000 | > 100 |  |
| CCn1c(CO)nn(-c2cc3c(C(C)C)cn(-c4cc(C)cnc4Cl)c(=O)c3cc2F)c1=O [Example 98, 2-(2-Chloro-5-methylpyridin-3-yl)-6-(4-ethyl-3-(hydroxymethyl)-5-oxo-4,5-dihydro-1H-1,2,4-triazol-1-yl)-7-fluoro-4-isopropylisoquinolin-1(2H)-one] | 6.29 | 50 |  |
| CCn1c(CO)nn(-c2nc3c(C(C)C)cn(-c4cc(C)ccc4F)c(=O)c3cc2F)c1=O [Example 99, 2-(4-Ethyl-3-(hydroxymethyl)-5-oxo-4,5-dihydro-1H-1,2,4-triazol-1-yl)-3-fluoro-6-(2-fluoro-5-methylphenyl)-8-isopropyl-1,6-naphthyridin-5(6H)-one] | 6.1 | 7 |  |
| CCn1c(CO)nn(-c2cc3c(C(C)C)cn(-c4nnccc4C)c(=O)c3cc2F)c1=O [Example 100, 6-(4-Ethyl-3-(hydroxymethyl)-5-oxo-4,5-dihydro-1H-1,2,4-triazol-1-yl)-7-fluoro 4-isopropyl-2-(4-methylpyridazin-3-yl)isoquinolin-1(2H)-one] | 70.7 | > 100 |  |
| CCn1c(CO)nn(-c2cc3c([C@H](C)C(F)(F)F)cn(-c4ccccc4C)c(=O)c3cc2F)c1=O [Example 101, (S)-6-(4-Ethyl-3-(hydroxymethyl)-5-oxo-4,5-dihydro-1H-1,2,4-triazol-1-yl)-7-fluoro-2-(o-tolyl)-4-(1,1,1-trifluoropropan-2-yl)isoquinolin-1(2H)-one] | 1.19 | 0.4 |  |
| CCn1c(CO)nn(-c2cc3c([C@@H](C)C(F)(F)F)cn(-c4ccccc4C)c(=O)c3cc2F)c1=O [Example 102, (R)-6-(4-Ethyl-3-(hydroxymethyl)-5-oxo-4,5-dihydro-1H-1,2,4-triazol-1-yl)-7-fluoro-2-(o-tolyl)-4-(1,1,1-trifluoropropan-2-yl)isoquinolin-1(2H)-one] | 0.26 | 0.3 |  |
| CCn1c(CO)nn(-c2cc3c(C(C)C)cn(-c4ccccc4C(F)(F)F)c(=O)c3cc2F)c1=O [Example 103, 6-(4-Ethyl-3-(hydroxymethyl)-5-oxo-4,5-dihydro-1H-1,2,4-triazol-1-yl)-7-fluoro-4-isopropyl-2-(2-(trifluoromethyl)phenyl)isoquinolin-1(2H)-one] | 0.669 | 0.3 |  |
| CCn1c(CO)nn(-c2cc3c(C(C)C)cn(-c4ncncc4C)c(=O)c3cc2F)c1=O [Example 104, 6-(4-Ethyl-3-(hydroxymethyl)-5-oxo-4,5-dihydro-1H-1,2,4-triazol-1-yl)-7-fluoro-4-isopropyl-2-(5-methylpyrimidin-4-yl)isoquinolin-1(2H)-one] | 43.5 | > 100 |  |
| CCn1c(CO)nn(-c2cc3c(C(C)C)cn(-c4ccccc4C(F)F)c(=O)c3cc2F)c1=O [Example 105, 2-(2-(Difluoromethyl)phenyl)-6-(4-ethyl-3-(hydroxymethyl)-5-oxo-4,5-dihydro-1H-1,2,4-triazol-1-yl)-7-fluoro-4-isopropylisoquinolin-1(2H)-one] | 0.528 | ≤ 0.2 | 0.2 |
| CCn1c(CO)nn(-c2cc3c(C(C)C)cn(-c4ccnc(OC)c4Cl)c(=O)c3cc2F)c1=O [Example 106, 2-(3-Chloro-2-methoxypyridin-4-yl)-6-(4-ethyl-3-(hydroxymethyl)-5-oxo-4,5-dihydro-1H-1,2,4-triazol-1-yl)-7-fluoro-4-isopropylisoquinolin-1(2H)-one] | 4.88 | 10 |  |
| CCn1c(CO)nn(-c2cc3c(C(C)C)cn(C4CCCCC4)c(=O)c3cc2F)c1=O [Example 107, 2-Cyclohexyl-6-(4-ethyl-3-(hydroxymethyl)-5-oxo-4,5-dihydro-1H-1,2,4-triazol-1-yl)-7-fluoro-4-isopropylisoquinolin-1(2H)-one] | 2.07 | 6 |  |
| CCn1c(CO)nn(-c2cc3c(C(C)C)cn(-c4nc(C)ccc4Cl)c(=O)c3cc2F)c1=O [Example 108, 2-(3-Chloro-6-methylpyridin-2-yl)-6-(4-ethyl-3-(hydroxymethyl)-5-oxo-4,5-dihydro-1H-1,2,4-triazol-1-yl)-7-fluoro-4-isopropylisoquinolin-1(2H)-one] | 3.07 | 6 |  |
| CCn1c(CO)nn(-c2cc3c(C(C)C)cn(C4CCCC4)c(=O)c3cc2F)c1=O [Example 109, 2-Cyclopentyl-6-(4-ethyl-3-(hydroxymethyl)-5-oxo-4,5-dihydro-1H-1,2,4-triazol-1-yl)-7-fluoro-4-isopropylisoquinolin-1(2H)-one] | 5.37 | 9 |  |
| CCn1c(CO)nn(-c2cc3c(C(C)C)cn(-c4nccc(OC)c4Cl)c(=O)c3cc2F)c1=O [Example 110, 2-(3-Chloro-4-methoxypyridin-2-yl)-6-(4-ethyl-3-(hydroxymethyl)-5-oxo-4,5-dihydro-1H-1,2,4-triazol-1-yl)-7-fluoro-4-isopropylisoquinolin-1(2H)-one] | 10.4 | 20 |  |
| CCn1c(CO)nn(-c2cc3c(C(C)C)cn([C@@H]4CCCC[C@@H]4C)c(=O)c3cc2F)c1=O [Example 111, 6-(4-Ethyl-3-(hydroxymethyl)-5-oxo-4,5-dihydro-1H-1,2,4-triazol-1-yl)-7-fluoro-4-isopropyl-2-((1R,2S)-2-methylcyclohexyl)isoquinolin-1(2H)-one] | 3.54 | 0.7 |  |
| CCn1c(CO)nn(-c2cc3c(C(C)C)cn(C(COC)COC)c(=O)c3cc2F)c1=O [Example 112, 2-(1,3-Dimethoxypropan-2-yl)-6-(4-ethyl-3-(hydroxymethyl)-5-oxo-4,5-dihydro-1H-1,2,4-triazol-1-yl)-7-fluoro-4-isopropylisoquinolin-1(2H)-one] | 35.3 | 30 |  |
| CCn1c(CO)nn(-c2cc3c(C(C)C)cn(-c4cc(OC)ncc4C)c(=O)c3cc2F)c1=O [Example 113, 6-(4-Ethyl-3-(hydroxymethyl)-5-oxo-4,5-dihydro-1H-1,2,4-triazol-1-yl)-7-fluoro-4-isopropyl-2-(2-methoxy-5-methylpyridin-4-yl)isoquinolin-1(2H)-one] | 2.1 | 3 |  |
| CCn1c(CO)nn(-c2cc3c(C(C)C)cn([C@H]4CCCC[C@H]4C)c(=O)c3cc2F)c1=O [Example 114, 6-(4-Ethyl-3-(hydroxymethyl)-5-oxo-4,5-dihydro-1H-1,2,4-triazol-1-yl)-7-fluoro-4-isopropyl-2-((1S,2R)-2-methylcyclohexyl)isoquinolin-1(2H)-one] | 11.6 | 3 |  |
| CCn1c(CO)nn(-c2cc3c(C(C)C)cn(CC4CC4)c(=O)c3cc2F)c1=O [Example 115, 2-(Cyclopropylmethyl)-6-(4-ethyl-3-(hydroxymethyl)-5-oxo-4,5-dihydro-1H-1,2,4-triazol-1-yl)-7-fluoro-4-isopropylisoquinolin-1(2H)-one] | 50.9 | 80 |  |
| CCC(COC)n1cc(C(C)C)c2cc(-n3nc(CO)n(CC)c3=O)c(F)cc2c1=O (centres unmarked) [Example 116, 6-(4-Ethyl-3-(hydroxymethyl)-5-oxo-4,5-dihydro-1H-1,2,4-triazol-1-yl)-7-fluoro-4-isopropyl-2-(1-methoxybutan-2-yl)isoquinolin-1(2H)-one] | 30.7 | 20 |  |
| CCn1c(CO)nn(-c2cc3c(C(C)C)cn(-c4ncccc4C)c(=O)c3cc2F)c1=O [Example 118, 6-(4-Ethyl-3-(hydroxymethyl)-5-oxo-4,5-dihydro-1H-1,2,4-triazol-1-yl)-7-fluoro-4-isopropyl-2-(3-methylpyridin-2-yl)isoquinolin-1(2H)-one] | 14.8 | 10 |  |
| CCC(CC)n1cc(C(C)C)c2cc(-n3nc(CO)n(CC)c3=O)c(F)cc2c1=O [Example 122, 6-(4-Ethyl-3-(hydroxymethyl)-5-oxo-4,5-dihydro-1H-1,2,4-triazol-1-yl)-7-fluoro-4-isopropyl-2-(pentan-3-yl)isoquinolin-1(2H)-one] | 13.4 | 10 |  |
| CCn1c(CO)nn(-c2cc3c(C(C)C)cn(C45CCC(CC4)C5)c(=O)c3cc2F)c1=O [Example 128, 2-(Bicyclo[2.2.1]heptan-1-yl)-6-(4-ethyl-3-(hydroxymethyl)-5-oxo-4,5-dihydro-1H-1,2,4-triazol-1-yl)-7-fluoro-4-isopropylisoquinolin-1(2H)-one] | 19 | 7 |  |

— US11505536B2, “Dihydroorotate dehydrogenase inhibitors” (Janssen Biotech, Inc., priority 2019, dated 2022)
